The text below walks through data of patent US8618074B2, “GPCR enhanced neuroprotection to treat brain injury” (Board of Regents of the University of Texas System, priority 2007, dated 2013).

Type in all cases: cell-based, mouse
Assay [1] deals with Neurons in the absence of astrocytes. The assay can be described thus: Neuronal survival under t-buOOH in the absence of astrocytes (transwells removed before ligand treatment). The protocol:
Primary cultures of astrocytes were prepared as previously published (Lin et al., 2005). C57BL/6 male mice were purchased from the National Institute of Aging and maintained in standard accredited housing conditions at the University of Texas Health Science Center Animal Facility. Animal protocols were approved by our Institutional Animal Care Use Committee. Astrocytes were cultured in DMEM F-12 media (Invitrogen, # 11039-021) supplemented with 2 mM glutamine, nonessential amino acids, 10% fetal calf serum, 100 U/ml penicillin/streptomycin (Cambrex BioScience Walkersville, #17-602E) and 1% fungizone (Invitrogen, #15290-018) at 37° C. in an atmosphere containing 5% CO2. The culture medium was changed every 3-5 days. Confluent cells were gently removed by a trypsin EDTA solution and re-plated on 35 mm glass bottom chambers (Bioptechs #04200415C) prior to imaging experiments 3-4 days later. Cells were maintained in plastic culture flasks until the final re-seeding of cells onto a glass bottom chamber and were passed up to 3 times for astrocyte only experiments. For co-culture experiments with neurons, primary astrocytes were plated directly onto corning transwell-clear permeable supports, which physically separates the two cell-types by ˜1 mm (# 07-200-170, Fisher scientific). Astrocytes were cultured in transwells until they were ˜70% confluent. Mouse cortical neurons (Cambrex Bio Science Walkersville Inc., # M-CX-300) were then cultured onto 6 well mat-tek glass bottom plates and maintained in Neurobasal Medium (Invitrogen, # 21103-049), 2 mM L-Glutamine (Cambrex BioScience Walkersville, #17-605E), 100 U/ml penicillin/streptomycin (Cambrex BioScience Walkersville, #17-602E) and B-27 with (Invitrogen, #17504-044) and without antioxidants (Invitrogen, #10889-038), which controls glia contamination to less than 0.5%. The transwell supports with cultured astrocytes were placed in the neuron seeded glass bottom chambers for four days before imaging and both cell types were then maintained in neuronal media. For neuron only experiments, the astrocytes on the transwell supports were removed prior to treatments and imaging.
Sensitivity of neurons to oxidative stress was assessed by treating cultures with 100 μM tert-butyl hydrogen peroxide (t-BuOOH, Sigma, #B-2633) for 3 hours. Neurons were then stained with Hoechst 33342 (10 μg/ml, Molecular Probes, #H-3570) to label all cell nuclei and calcein AM (2 μM, #C3100, Molecular Probes, #C3100). […] Calcein fluorescence is only observed in live cells that have maintained their plasma membrane integrity. Images were acquired on an inverted Nikon TE300 microscope with a Hamamatsu ORCAER camera and Open lab software (Improvision).
Activation of neuronal P2X receptors has been reported neurotoxic. Consequently, we further examined the affects of P2Y-R activation on neuronal survival in the absence of astrocytes. Neurons were co-cultured with astrocytes in transwell dishes that were removed from the cultures just prior to treating the neurons with purinergic ligands. Neurons in the absence of astrocytes were then exposed to t-buOOH (100 μM, 4.5 hours with normal B-27, 3 hours with antioxidant-free B-27) and cell viability was assessed by the ability of neurons to retain calcien. […] The same results were found for neurons initially co-cultured with old astrocytes. […]

For assay [2], the system named is astrocytes. As to the kind of experiment: O2 consumption assay (Clark electrode respirometry). The protocol: O2 consumption was monitored with a Clark electrode (Mitocell S200 micro respirometry system; Strathkelvin Instruments). Astrocytes (500 μl at 10^5 cells/ml) were loaded into a 500 μl MT200A Respirometer Chamber, suspended by a fixed-speed solid-state magnetic stirrer inside the chamber and maintained at 37° C. by a circulating water bath. O2 was monitored for 4 minutes before injecting 5 μl of ATP (200 μM) into the chamber. O2 consumption was then monitored for another 4 minutes. Changes in O2 levels were calculated by respirometry software. For control recordings, 5 μl of buffer was injected into chamber. Oligomycin astrocytes were treated with oligomycin (0.01 μM) for 30 minutes before trypsinization and loading into chamber.
To further investigate the importance of mitochondrial metabolism on the protective effect of P2Y-R activation, we first measured the rate of O2 consumption for astrocytes with and without P2Y-R activation. Primary cultures of astrocytes were grown to ˜70% confluency, gently removed by trypsin EDTA and resuspended in PBS buffer. Astrocytes (10^5 cells/ml) were then loaded into a 500 μl Respirometer Chamber MT200A) and maintained at 37° C. by a circulating water bath. FIG. 5A depicts plots of O2 levels in suspended astrocytes as labeled. FIG. 5B depicts a histogram showing the average change in O2 consumption with 2 μM ATP compared to untreated cells (control). Bars on the right show O2 consumption of Astrocytes are preloaded 0.01 uM Oligomycin (30 minutes).

Assay [3] deals with astrocytes. As to the kind of experiment: Intracellular ATP determination (luciferin-luciferase). The protocol:
Intracellular ATP was measured using a luciferin-luciferase kit (Invitrogen, #22066). Plated astrocytes were trypsinized and washed 3× with PBS buffer (GIBCO #14190). An aliquot of cells was set aside to measure the cell density with a hemocytometer. The cells were then suspended in a lysate buffer (4 mM EDTA and 100 mM Tris, pH 7.75) and immediately heated to 100° C. for 5 minutes to minimize enzymatic changes in ATP levels. The supernatant was collected after a 10,000 g centrifugation for 1 minute and used with the luciferin/luciferase kit according to the manufacturer's instructions. Luminescence was measured with a Synergy™ HT Multi-Detection Microplate Reader (BioTek). ATP levels were normalized by cell density.
Our next approach to investigate the role of mitochondrial metabolism was to directly measure ATP levels in cultures astrocytes using a luciferin-luciferase assay (Invitrogen). Astrocytes were cultured as described above, trypsinized and washed with buffer. The cells were then suspended in a lysate buffer and immediately heated to 100° C. (5 min) to minimize enzymatic changes in ATP levels. After centrifugation, the ATP dependent luminescence of supernatant was measured with a microplate reader (Biotek). FIG. 5C depicts histograms of the direct measurement of intracellular ATP levels relative to untreated cells (control), P2Y-R stimulated (MeADP), then the same measurements in the presence of oligomycin (oligo) or ruthenium 360 (Ru360). We estimated that the resting intracellular ATP concentration in cultured astrocytes was 0.31±0.14 μM ATP/10^4 cells (n=3). […] Finally, we tested whether ruthenium 360 (Ru360; Calbiochem), a polycation that inhibits the electrogenic mitochondrial Ca^2+ uniporter, affected mitochondrial ATP production.

Setting [4] is: neurons initially co-cultured with old astrocytes, astrocytes removed, t-buOOH 100 μM.
[5] abbreviates: neurons without astrocytes, normal B-27, t-buOOH 100 μM 4.5 hours.

As for `Nc1ncnc2c1ncn2[C@@H]1O[C@H](COP(=O)(O)OP(=O)(O)OP(=O)(O)O)[C@@H](O)[C@H]1O` [ATP], the “% neurons alive” value in assay [1] (setting [4]) was 49±6%; in assay [1] (neurons without astrocytes, anti-oxidant-free B-27, t-buOOH 100 μM 3 hours) it was 18±2%; in assay [1] (setting [5]) it was 56±7%. Further, the “rate of O2 consumption” value in the assay with astrocytes [2] (bolus of ATP, 2 μM final concentration) stood at 3.67 ± 0.3 nmol/min.

Consider `CC[C@H]1/C=C/C=C/C[C@@H](C)[C@H](O)[C@@](C)(O)C(=O)[C@@H](C)[C@H](O)[C@@H](C)C(=O)[C@@H](C)[C@H](O)[C@@H](C)/C=C/C(=O)O[C@@H]2[C@H](C)[C@H](CC1)O[C@]1(CC[C@H](C)[C@H](C[C@@H](C)O)O1)[C@H]2C` [oligomycin], for which the “rate of O2 consumption” value was determined as 1.19 ± 0.27 nmol/min in the assay with astrocytes [2] (oligomycin 0.01 μM 30 minutes + extracellular ATP) and 0.97 ± 0.21 nmol/min with astrocytes [2] (oligomycin 0.01 μM, 30 minutes). The “effect on P2Y1-R (2-MeSADP) mediated increases in ATP” value in the assay on astrocytes [3] (oligomycin 0.01 μM 30 min pretreatment + 2-MeSADP) was “completely inhibited”. Besides, in the assay on astrocytes [3] (oligomycin 0.01 μM, 30 min), the “resting levels of ATP, % of control” value is on record as 82.6%±3.2 % of control.

As for `CSc1nc(N)c2ncn([C@@H]3O[C@H](COP(=O)(O)OP(=O)(O)O)[C@@H](O)[C@H]3O)c2n1` [2-MeSADP], the “% neurons alive” value in assay [1] (setting [4]) is given as 72±3%; in assay [1] (setting [5]) it was 74±3%. Besides, the “intracellular ATP levels” value in the assay on astrocytes [3] (2-MeSADP 2 μM for 10 minutes) was 0.39±0.16 μM ATP/10^4 cells.
